Where “and” joins values, the source holds several entries; their conditions need not be identical. Equal values may be shown once. A value given as a limit tells only on which side of the number the result lay.

For one assay, the target named is T1, Adenosine A2A receptor (Homo sapiens, UniProt P29274). Put plainly: cAMP assay in 293A cells stably expressing the adenosine A2A receptor (CGS21680 stimulation, HTRF). It is filed as cell-based. Details: expressed in transfected cells; host or cells: 293A cells (Invitrogen, Cat# R705-07) infected with A2A-expressing lentivirus (custom packaged by Biosettia), puromycin selected. The note with it: 293A cells stably expressing A2A receptor; 0.1% BSA; 1 uM CGS21680 stimulation; replicate values separated by /; read-out: cAMP (nM) 0.1% BSA, 1 uM CGS.
T1 sequence (P29274 whole entry): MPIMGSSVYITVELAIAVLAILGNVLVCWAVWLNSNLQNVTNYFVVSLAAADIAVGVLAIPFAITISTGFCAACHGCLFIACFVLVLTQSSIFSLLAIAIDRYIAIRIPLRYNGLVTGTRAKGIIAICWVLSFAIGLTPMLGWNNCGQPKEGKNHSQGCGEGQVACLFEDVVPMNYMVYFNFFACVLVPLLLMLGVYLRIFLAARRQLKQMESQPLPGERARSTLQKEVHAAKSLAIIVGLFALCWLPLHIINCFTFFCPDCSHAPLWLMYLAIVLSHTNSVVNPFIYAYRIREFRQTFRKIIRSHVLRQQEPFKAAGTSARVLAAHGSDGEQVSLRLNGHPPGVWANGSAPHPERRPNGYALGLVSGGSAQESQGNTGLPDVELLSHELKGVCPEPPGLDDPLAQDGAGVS
As to `Cc1cc(-c2c(OCc3cc(-c4nn[nH]n4)cc(C(C)(C)O)n3)nc(N)nc2-c2ccc(F)cc2)cc(C(F)F)n1` [Example 441, 2-(6-(((2-amino-5-(2-(difluoromethyl)-6-methylpyridin-4-yl)-6-(4-fluorophenyl)pyrimidin-4-yl)oxy)methyl)-4-(2H-tetrazol-5-yl)pyridin-2-yl)propan-2-ol], the IC50 was > 3000 nM.

Turning to `Cc1cc(-c2c(OCc3cc(-c4nnnn4C)cc(C(C)(C)O)n3)nc(N)nc2-c2ccc(F)cc2)cc(C(F)F)n1` [Example 443, 2-(6-(((2-amino-5-(2-(difluoromethyl)-6-methylpyridin-4-yl)-6-(4-fluorophenyl)pyrimidin-4-yl)oxy)methyl)-4-(1-methyl-1H-tetrazol-5-yl)pyridin-2-yl)propan-2-ol], the IC50 is 23200 nM.

The target of another assay is T1, Adenosine A2A receptor. Put plainly: Adenosine A2A receptor competitive binding assay (Tag-lite HTRF). The settings on record: Tag-lite adenosine A2A receptor ligand binding, 2 h room temperature; values separated by / are repeat determinations. As to the method: Adenosine A2A Receptor Competitive Binding Assay
The Tag-lite adenosine A2A receptor ligand binding assay is a homogeneous alternative to radioligand binding assay and developed by Cisbio (Bedford, Mass.). We carried out this assay following Cisbio's instructions with minor modification. Pre-transfected, fluorescent donor-labelled cells (Cisbio Cat#: C1TT1A2A, 200 testes) was stored at −80° C. and thawed right before use. Cells were washed once with 5 ml TLB and gently resuspended in 2 ml TLB. 4 μl suspended cells was dispensed into each well of white low-volume 384-well plate (Greiner Bio-One). Serial dilutions of compounds were prepared in Tag-lite buffer (TLB, Cisbio Cat #: LABMED) to a DMSO concentration of 0.6%. After adding 4 μl of compound dilutions to each well, 4 μl60 nM Adenosine A2A receptor red antagonist fluorescent ligand (Cisbio Cat #: L0058RED) was dispensed to each well. The 384-well assay plate was centrifuged briefly and incubated at room temperature for 2 h. HTRF signals were measured using CIARIOstar plate reader (BMG Labtech).
`CCN(CC)C(=O)CCc1nc(N)nc(-c2ccccc2)c1-c1cc(C)nc(C(F)(F)F)c1` [Example 18, 3-(2-amino-5-(2-methyl-6-(trifluoromethyl)pyridin-4-yl)-6-phenylpyrimidin-4-yl)-N,N-diethylpropanamide] yielded an IC50 of 433 nM.

Regarding `Cc1cc(-c2c(CO)nc(N)nc2-c2ccccc2)cc(C(F)(F)F)n1` [Example 19, (2-amino-5-(2-methyl-6-(trifluoromethyl)pyridin-4-yl)-6-phenylpyrimidin-4-yl)methanol], the IC50 is 52 nM.

As for `CC(=O)N1CCN(c2ccc(CCOc3nc(N)nc(-c4ccccc4)c3-c3cc(C)nc(C(F)(F)F)c3)cc2)CC1` [Example 20, 1-(4-(4-(2-((2-amino-5-(2-methyl-6-(trifluoromethyl)pyridin-4-yl)-6-phenylpyrimidin-4-yl)oxy)ethyl)phenyl)piperazin-1-yl)ethan-1-one], the IC50 was 26.6 nM.

`CCN(CC)C(=O)OCc1nc(N)nc(-c2ccccc2)c1-c1cc(C)nc(C(F)(F)F)c1` [Example 21, (2-amino-5-(2-methyl-6-(trifluoromethyl)pyridin-4-yl)-6-phenylpyrimidin-4-yl)methyl diethylcarbamate] showed an IC50 of 111 nM.

Regarding `CNCc1nc(N)nc(-c2ccccc2)c1-c1cc(C)nc(C(F)(F)F)c1` [Example 22, 5-(2-methyl-6-(trifluoromethyl)pyridin-4-yl)-4-((methylamino)methyl)-6-phenylpyrimidin-2-amine], the IC50 amounted to 1780 nM.

As for `Cc1cc(-c2c(CN(C)C)nc(N)nc2-c2ccccc2)cc(C(F)(F)F)n1` [Example 23, 4-((dimethylamino)methyl)-5-(2-methyl-6-(trifluoromethyl)pyridin-4-yl)-6-phenylpyrimidin-2-amine], the IC50 was found to be 1780 nM.

The compound `Cc1cc(-c2c(CNCC(F)(F)F)nc(N)nc2-c2ccccc2)cc(C(F)(F)F)n1` [Example 24, 5-(2-methyl-6-(trifluoromethyl)pyridin-4-yl)-4-phenyl-6-(((2,2,2-trifluoroethyl)amino)methyl)pyrimidin-2-amine] yielded an IC50 of 118 nM.

Take `CC(=O)N1CCC(Oc2ccc(CCOc3nc(N)nc(-c4ccccc4)c3-c3cc(C)nc(C(F)(F)F)c3)cc2)C1` (stereo not shown) [Example 25, 1-(3-(4-(2-((2-amino-5-(2-methyl-6-(trifluoromethyl)pyridin-4-yl)-6-phenylpyrimidin-4-yl)oxy)ethyl)phenoxy)pyrrolidin-1-yl)ethan-1-one]: the IC50 is 32 nM.

In the case of `Cc1cc(-c2c(OCCc3ccc(N4CCC(=O)CC4)cc3)nc(N)nc2-c2ccccc2)cc(C(F)(F)F)n1` [Example 26, 1-(4-(2-((2-amino-5-(2-methyl-6-(trifluoromethyl)pyridin-4-yl)-6-phenylpyrimidin-4-yl)oxy)ethyl)phenyl)piperidin-4-one], the IC50 is 43 nM and 26.8 nM.

`CCN(CC)C(=O)COc1nc(N)nc(-c2ccc(F)cc2)c1-c1cc(C)nc(C(F)(F)F)c1` [Example 27, 2-[[2-amino-6-(4-fluorophenyl)-5-[2-methyl-6-(trifluoromethyl)pyridin-4-yl]pyrimidin-4-yl]oxy]-N,N-diethylacetamide] returned an IC50 of 15.9 nM.

Turning to `CCN(CC)C(=O)CNc1nc(N)nc(-c2ccccc2)c1-c1cc(C)nc(C(F)(F)F)c1` [Example 30, 2-((2-amino-5-(2-methyl-6-(trifluoromethyl)pyridin-4-yl)-6-phenylpyrimidin-4-yl)amino)-N,N-diethylacetamide], the IC50 is 9.95 nM.

For `CC(=O)N1CCN(c2ccc(CCOc3nc(N)nc(-c4ccc(F)cc4)c3-c3cc(C)nc(C(F)F)c3)cc2)CC1` [Example 31, 1-(4-[4-[2-([2-amino-5-[2-(difluoromethyl)-6-methylpyridin-4-yl]-6-(4-fluorophenyl)pyrimidin-4-yl]oxy)ethyl]phenyl]piperazin-1-yl)ethan-1-one], the IC50 turned out to be 8.35 nM.

With `Cc1cc(-c2c(OC3CCOCC3)nc(N)nc2-c2ccc(F)cc2)cc(C(F)F)n1` [Example 33, 5-(2-(difluoromethyl)-6-methylpyridin-4-yl)-4-(4-fluorophenyl)-6-((tetrahydro-2H-pyran-4-yl)oxy)pyrimidin-2-amine], the IC50 was determined as 66.5 nM.

Compound `Cc1cc(-c2c(OC3COC3)nc(N)nc2-c2ccc(F)cc2)cc(C(F)F)n1` [Example 34, 5-(2-(difluoromethyl)-6-methylpyridin-4-yl)-4-(4-fluorophenyl)-6-(oxetan-3-yloxy)pyrimidin-2-amine] had an IC50 of 45.3 nM.

For `Cc1cc(-c2c(OCCN3CCN(C)CC3)nc(N)nc2-c2ccc(F)cc2)cc(C(F)F)n1` [Example 35, 5-(2-(difluoromethyl)-6-methylpyridin-4-yl)-4-(4-fluorophenyl)-6-(2-(4-methylpiperazin-1-yl)ethoxy)pyrimidin-2-amine], the IC50 came to 124 nM.

Compound `Cc1cc(-c2c(OCCN3CCOCC3)nc(N)nc2-c2ccc(F)cc2)cc(C(F)F)n1` [Example 36, 5-(2-(difluoromethyl)-6-methylpyridin-4-yl)-4-(4-fluorophenyl)-6-(2-morpholinoethoxy)pyrimidin-2-amine] registered an IC50 of 11.4 nM.

Turning to `Cc1cc(-c2c(OCC3COC3)nc(N)nc2-c2ccc(F)cc2)cc(C(F)F)n1` [Example 37, 5-(2-(difluoromethyl)-6-methylpyridin-4-yl)-4-(4-fluorophenyl)-6-(oxetan-3-ylmethoxy)pyrimidin-2-amine], the IC50 stood at 10.2 nM.

In the case of `CCN(CC)C(=O)CN(C)c1nc(N)nc(-c2ccccc2)c1-c1cc(C)nc(C(F)(F)F)c1` [Example 38, 2-((2-amino-5-(2-methyl-6-(trifluoromethyl)pyridin-4-yl)-6-phenylpyrimidin-4-yl)(methyl)amino)-N,N-diethylacetamide], the IC50 was determined as 816 nM.

As to `Cc1cc(-c2c(OCC(=O)NC3CCOCC3)nc(N)nc2-c2ccc(F)cc2)cc(C(F)F)n1` [Example 40, 2-((2-amino-5-(2-(difluoromethyl)-6-methylpyridin-4-yl)-6-(4-fluorophenyl)pyrimidin-4-yl)oxy)-N-(tetrahydro-2H-pyran-4-yl)acetamide], the IC50 turned out to be 295 nM.

`Cc1cc(-c2c(OCC(=O)NC3CC3)nc(N)nc2-c2ccc(F)cc2)cc(C(F)F)n1` [Example 42, 2-((2-amino-5-(2-(difluoromethyl)-6-methylpyridin-4-yl)-6-(4-fluorophenyl)pyrimidin-4-yl)oxy)-N-cyclopropylacetamide] yielded an IC50 of 5.2 nM.

The values above are taken from US20210355104A1, “ADENOSINE RECEPTOR BINDING COMPOUNDS” (Nikang Therapeuticsm Inc., priority 2018, published 2021).
